Laboratory results as given in PubChem BioAssay AID256 (DTP/NCI, 2004).
Several values for one entry are separate records, joined by “and”; a condition that tells them apart may be missing. Equal entries are not always repeated. Inconclusive results and toxic doses are left out.

Test system: CD2F1 mice, L1210 leukemia ip, survival T/C
Assay: NCI In Vivo Anticancer Drug Screen. Data for tumor model L1210 Leukemia (intraperitoneal) in CD2F1 (CDF1) mice
Conditions: higher = longer survival
Procedure, shortened: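 Each value reflects a quotient of treated over vehicle control outcomes in mice with a transplanted tumor.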

[1] = endpoint: mean survival time, dose: 100.0 mg/kg/injection, schedule: Q01DX001 (ip), vehicle: saline
[2] = endpoint: mean survival time, dose: 200.0 mg/kg/injection, schedule: Q01DX001 (ip), vehicle: saline
[3] = endpoint: mean survival time, dose: 50.0 mg/kg/injection, schedule: Q01DX001 (ip), vehicle: saline
[4] = endpoint: mean survival time, dose: 100.0 mg/kg/injection, schedule: Q01DX009 (ip), vehicle: saline with Tween-80
[5] = endpoint: mean survival time, dose: 200.0 mg/kg/injection, schedule: Q01DX009 (ip), vehicle: saline with Tween-80
[6] = endpoint: mean survival time, dose: 400.0 mg/kg/injection, schedule: Q01DX009 (ip), vehicle: saline with Tween-80
[7] = endpoint: mean survival time, dose: 25.0 mg/kg/injection, schedule: Q01DX009 (ip), vehicle: saline with Tween-80
[8] = endpoint: mean survival time, dose: 50.0 mg/kg/injection, schedule: Q01DX009 (ip), vehicle: saline with Tween-80
[9] = endpoint: mean survival time, dose: 100.0 mg/kg/injection, schedule: Q04DX003 (ip), vehicle: saline with Tween-80
[10] = endpoint: mean survival time, dose: 200.0 mg/kg/injection, schedule: Q04DX003 (ip), vehicle: saline with Tween-80
[11] = endpoint: mean survival time, dose: 400.0 mg/kg/injection, schedule: Q04DX003 (ip), vehicle: saline with Tween-80
[12] = endpoint: mean survival time, dose: 12.5 mg/kg/injection, schedule: Q04DX003 (ip), vehicle: saline with Tween-80
[13] = endpoint: mean survival time, dose: 12.5 mg/kg/injection, schedule: Q04DX003 (ip), vehicle: saline
[14] = endpoint: mean survival time, dose: 25.0 mg/kg/injection, schedule: Q04DX003 (ip), vehicle: saline with Tween-80
[15] = endpoint: mean survival time, dose: 25.0 mg/kg/injection, schedule: Q04DX003 (ip), vehicle: saline
[16] = endpoint: mean survival time, dose: 50.0 mg/kg/injection, schedule: Q04DX003 (ip), vehicle: saline with Tween-80
[17] = endpoint: mean survival time, dose: 50.0 mg/kg/injection, schedule: Q04DX003 (ip), vehicle: saline
[18] = endpoint: mean survival time, dose: 100.0 mg/kg/injection, schedule: Q04DX002 (ip), vehicle: saline
[19] = endpoint: mean survival time, dose: 100.0 mg/kg/injection, schedule: Q04DX003 (ip), vehicle: saline

SMILES: CNC(=S)Nc1ncn[nH]1
- T/C (endpoint: mean survival time, dose: 12.5 mg/kg/injection, schedule: Q01DX001 (ip), vehicle: carboxymethylcellulose (CMC)): 95 % of control
- T/C (endpoint: mean survival time, dose: 25.0 mg/kg/injection, schedule: Q01DX001 (ip), vehicle: carboxymethylcellulose (CMC)): 93 % of control
- T/C (endpoint: mean survival time, dose: 50.0 mg/kg/injection, schedule: Q01DX001 (ip), vehicle: carboxymethylcellulose (CMC)): 93 % of control
- T/C (endpoint: mean survival time, dose: 100.0 mg/kg/injection, schedule: Q01DX001 (ip), vehicle: carboxymethylcellulose (CMC)): 91 % of control
- T/C (endpoint: mean survival time, dose: 200.0 mg/kg/injection, schedule: Q01DX001 (ip), vehicle: carboxymethylcellulose (CMC)): 91 % of control

SMILES: c1ccc(CNCCCNCc2ccccn2)nc1
- T/C [1]: 100 % of control
- T/C [2]: 100 % of control

SMILES: Nc1c(Cl)cc(Cl)cc1C(=O)O
- T/C [1]: 102 % of control
- T/C [2]: 100 % of control
- T/C (endpoint: mean survival time, dose: 400.0 mg/kg/injection, schedule: Q01DX001 (ip), vehicle: saline): 104 % of control

SMILES: O=C1C(=O)c2ccc(Br)cc2C(O)=C1/C=C/c1ccccc1
- T/C [3]: 104 % of control
- T/C [1]: 101 % of control
- T/C [2]: 103 % of control

SMILES: CC1(CC(C)(C)C2CCCCC2)OCCO1
- T/C (endpoint: mean survival time, dose: 25.0 mg/kg/injection, schedule: Q01DX009 (ip), vehicle: Klucel (hydroxypropylcellulose) (HPC)): 93 % of control
- T/C (endpoint: mean survival time, dose: 50.0 mg/kg/injection, schedule: Q01DX009 (ip), vehicle: Klucel (hydroxypropylcellulose) (HPC)): 95 % of control
- T/C (endpoint: mean survival time, dose: 100.0 mg/kg/injection, schedule: Q01DX009 (ip), vehicle: Klucel (hydroxypropylcellulose) (HPC)): 91 % of control

SMILES: c1cnc2c(c1)Nc1cc3ccccc3cc1N2
- T/C (endpoint: mean survival time, dose: 100.0 mg/kg/injection, schedule: Q04DX002 (ip), vehicle: saline + alcohol): 100 % of control
- T/C (endpoint: mean survival time, dose: 200.0 mg/kg/injection, schedule: Q04DX002 (ip), vehicle: saline + alcohol): 89 % of control
- T/C (endpoint: mean survival time, dose: 400.0 mg/kg/injection, schedule: Q04DX002 (ip), vehicle: saline + alcohol): 89 % of control

SMILES: COCc1nccc2c1[nH]c1ccccc12
- T/C [4]: 92 % of control
- T/C [5]: 110 % of control
- T/C [6]: 107 % of control

SMILES: CN(C)c1ccc(N=Nc2cccc(Cl)c2Cl)cc1
- T/C [7]: 102 % of control
- T/C [8]: 97 % of control
- T/C [4]: 105 % of control
- T/C [9]: 95 % of control
- T/C [10]: 98 % of control
- T/C [11]: 104 % of control

SMILES: O=C1C=C(C2OC(CI)C(O)C2O)C(=O)N1 (stereo unspecified)
- T/C (endpoint: mean survival time, dose: 12.5 mg/kg/injection, schedule: Q01DX005 (ip), vehicle: water): 109 % of control
- T/C (endpoint: mean survival time, dose: 25.0 mg/kg/injection, schedule: Q01DX005 (ip), vehicle: water): 107 % of control

SMILES: Cc1ccc(S(=O)(=O)C2C=CC=CC=C2)cc1
- T/C [7]: 98 % of control
- T/C [8]: 98 % of control
- T/C [4]: 94 % of control

SMILES: CCOC(=O)NC(NC(=O)OCC)C(Br)(Br)Br
- T/C (endpoint: mean survival time, dose: 200.0 mg/kg/injection, schedule: Q01DX001 (ip), vehicle: Klucel (hydroxypropylcellulose) (HPC)): 103 % of control
- T/C (endpoint: mean survival time, dose: 400.0 mg/kg/injection, schedule: Q01DX001 (ip), vehicle: Klucel (hydroxypropylcellulose) (HPC)): 95 % of control

SMILES: COc1cc(C(=O)CC2CCCCN2)ccc1O (stereo unspecified)
- T/C (endpoint: mean survival time, dose: 50.0 mg/kg/injection, schedule: Q01DX Z (ip), vehicle: saline): 98 % of control
- T/C (endpoint: mean survival time, dose: 100.0 mg/kg/injection, schedule: Q01DX Z (ip), vehicle: saline): 96 % of control
- T/C (endpoint: mean survival time, dose: 200.0 mg/kg/injection, schedule: Q01DX Z (ip), vehicle: saline): 100 % of control

SMILES: CCCCCCCCCCCCCCCCCC[N+](C)(C)C (tested in a mixture with another compound)
- T/C (endpoint: mean survival time, dose: 1.5 mg/kg/injection, schedule: Q01DX009 (ip), vehicle: saline with Tween-80): 100 % of control
- T/C (endpoint: mean survival time, dose: 3.0 mg/kg/injection, schedule: Q01DX009 (ip), vehicle: saline with Tween-80): 94 % of control
- T/C (endpoint: mean survival time, dose: 6.0 mg/kg/injection, schedule: Q01DX009 (ip), vehicle: saline with Tween-80): 94 % of control

SMILES: C[N+]1(C)CCC(OC(=O)C(O)(c2ccccc2)C2CCCC2)C1 (stereo unspecified)
- T/C (endpoint: mean survival time, dose: 3.13 mg/kg/injection, schedule: Q04DX003 (ip), vehicle: saline): 87 % of control
- T/C (endpoint: mean survival time, dose: 6.25 mg/kg/injection, schedule: Q04DX003 (ip), vehicle: saline): 98 % of control
- T/C [12]: 100 % of control
- T/C [13]: 90 % of control
- T/C (endpoint: mean survival time, dose: 25.0 mg/kg/injection, schedule: Q01DX001 (ip), vehicle: saline): 104 % of control
- T/C [14]: 94 % of control
- T/C [15]: 103 % of control
- T/C [3]: 106 % of control
- T/C [16]: 103 % of control
- T/C [17]: 95 % of control
- T/C [1]: 102 % of control and 105 % of control
- T/C [18]: 97 % of control
- T/C [9]: 108 % of control
- T/C [19]: 113 % of control and 88 % of control
- T/C (endpoint: mean survival time, dose: 200.0 mg/kg/injection, schedule: Q04DX002 (ip), vehicle: saline): 112 % of control
- T/C (endpoint: mean survival time, dose: 400.0 mg/kg/injection, schedule: Q04DX002 (ip), vehicle: saline): 104 % of control

SMILES: CC1C(N2CCCCC2)CS1(=O)=O (stereo unspecified)
- T/C (endpoint: mean survival time, dose: 25.0 mg/kg/injection, schedule: Q04DX002 (ip), vehicle: saline): 104 % of control
- T/C (endpoint: mean survival time, dose: 50.0 mg/kg/injection, schedule: Q04DX002 (ip), vehicle: saline): 101 % of control
- T/C [18]: 108 % of control

SMILES: CCOC(=O)C([NH-])CC[NH-].[Cl][Pt+2][Cl] (stereo unspecified)
- T/C [12]: 182 % of control
- T/C [14]: 210 % of control
- T/C [16]: 93 % of control

SMILES: Cc1c2ncnc-2ncn1O
- T/C [15]: 97 % of control
- T/C [17]: 101 % of control
- T/C [19]: 104 % of control

SMILES: CC([NH-])C([NH-])O.O=S(=O)(O)O.[Pt+2] (stereo unspecified)
- T/C [13]: 166 % of control
- T/C [15]: 103 % of control

SMILES: N#CCCN(CCCN1CCOCC1)C(=S)Nc1ccc(Cl)cc1
- T/C [4]: 104 % of control
- T/C [5]: 104 % of control
- T/C [6]: 93 % of control

SMILES: CCCCc1c(N)nc(N)nc1N
- T/C (endpoint: mean survival time, dose: 18.7 mg/kg/injection, schedule: Q01DX001 (ip), vehicle: saline with Tween-80): 104 % of control
- T/C (endpoint: mean survival time, dose: 37.5 mg/kg/injection, schedule: Q01DX001 (ip), vehicle: saline with Tween-80): 100 % of control
- T/C (endpoint: mean survival time, dose: 75.0 mg/kg/injection, schedule: Q01DX001 (ip), vehicle: saline with Tween-80): 109 % of control

SMILES: CCCCN(CCCC)CC(C)(O)c1cc(-c2ccc(Cl)cc2)nc2c(C)cc(C)cc12 (stereo unspecified)
- T/C [9]: 87 % of control
- T/C [10]: 89 % of control

SMILES: O=C1/C(=C/c2ccccc2)CCC/C1=C\c1ccccc1
- T/C [7]: 94 % of control
- T/C [8]: 94 % of control
- T/C [4]: 89 % of control

SMILES: O=[N+]([O-])c1ccc2c(c1[N+](=O)[O-])CCCC2
- T/C (endpoint: mean survival time, dose: 100.0 mg/kg/injection, schedule: Q01DX001 (ip), vehicle: saline with Tween-80): 104 % of control
- T/C (endpoint: mean survival time, dose: 200.0 mg/kg/injection, schedule: Q01DX001 (ip), vehicle: saline with Tween-80): 107 % of control
- T/C (endpoint: mean survival time, dose: 400.0 mg/kg/injection, schedule: Q01DX001 (ip), vehicle: saline with Tween-80): 93 % of control

SMILES: CCOC(OCC)/C(C)=N/[N+](C)(C)C
- T/C (endpoint: mean survival time, dose: 75.0 mg/kg/injection, schedule: Q01DX001 (ip), vehicle: saline): 107 % of control
- T/C (endpoint: mean survival time, dose: 150.0 mg/kg/injection, schedule: Q01DX001 (ip), vehicle: saline): 98 % of control

SMILES: C=CCCCCCCCCC(=O)Nc1cc2c3c(c1)CCCN3CCC2
- T/C [8]: 97 % of control
- T/C [4]: 101 % of control
- T/C [9]: 93 % of control

SMILES: Oc1c(Cl)cc(Cl)cc1C=NCC1CCC(CN=Cc2cc(Cl)cc(Cl)c2O)CC1 (stereo unspecified)
- T/C [10]: 90 % of control
- T/C [11]: 90 % of control

SMILES: COc1ccc(Br)cc1C1OC(=O)c2c(OC)c(OC)cc([N+](=O)[O-])c21 (stereo unspecified)
- T/C [9]: 92 % of control
- T/C [10]: 93 % of control

SMILES: COc1ccc(OC)c(-c2cn(C3CC(O)C(CO)O3)c(=O)[nH]c2=O)c1 (stereo unspecified)
- T/C (endpoint: median survival time, dose: 12.5 mg/kg/injection, schedule: Q01DX005 (ip), vehicle: water): 100 % of control
- T/C (endpoint: median survival time, dose: 25.0 mg/kg/injection, schedule: Q01DX005 (ip), vehicle: water): 102 % of control
- T/C (endpoint: median survival time, dose: 50.0 mg/kg/injection, schedule: Q01DX005 (ip), vehicle: water): 97 % of control
- T/C (endpoint: median survival time, dose: 100.0 mg/kg/injection, schedule: Q01DX005 (ip), vehicle: water): 102 % of control
- T/C (endpoint: median survival time, dose: 200.0 mg/kg/injection, schedule: Q01DX005 (ip), vehicle: water): 98 % of control
